From ChEMBL document CHEMBL1201862, “PubChem BioAssay data set” (2004) come the findings set out here.

Among the test systems are HOP-92; Hs-578T; RXF 393; BT-549; HL-60; SNB-19; SF-539; MDA-N; SNB-75; TK-10; UACC-257; NCI-H226; HCT-15; OVCAR-4; NCI/ADR-RES; NCI-H460; MCF7; OVCAR-5; NCI-H522; SW-620.
Holding throughout (assay): NCI tumour cell line growth inhibition, 48 h

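Cells were grown in 96-well plates and exposed to each compound for 48 hours at five concentrations; endpoints were interpolated linearly between bracketing concentrations, or set to the highest concentration if not reached. GI50 is the concentration that inhibits growth by half.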 The source made the active and inactive calls. No stated cut-off is given here; in the data, active = GI50 up to about 1.1 µM and inactive = higher. Some results are limits rather than exact numbers.

As to `Cc1ccnc(NS(=O)(=O)c2ccc(NC(=O)c3ccc4nc5ccccc5c(Nc5ccc(S(=O)(=O)Nc6nccc(C)n6)cc5)c4c3)cc2)n1`, the GI50 in the assay with HOP-92 is 23.2 µM (inactive); in the assay on Hs-578T, 37.3 µM (inactive); in the assay with RXF 393, 13.6 µM (inactive); in the assay with BT-549, 14.3 µM (inactive); in the assay with HL-60, 94.4 µM (inactive); in the assay on SNB-19, 51.1 µM (inactive). The GI50 is 52 µM (inactive) in the assay on SF-539; 62.4 µM (inactive) with MDA-N; 50.4 µM (inactive) in the assay on SNB-75; > 100 µM (inactive) in the assay on TK-10; > 100 µM (inactive) in the assay with UACC-257; > 100 µM (inactive) with NCI-H226. The GI50 in the assay with HCT-15 was > 100 µM; in the assay on OVCAR-4 it was 52.4 µM (inactive); with NCI/ADR-RES it was > 100 µM (inactive); in the assay on NCI-H460 it was 65.3 µM (inactive); in the assay with MCF7, 21.1 µM (inactive); in the assay with OVCAR-5, > 100 µM (inactive). Also, the GI50 with NCI-H522 was 39.4 µM (inactive); in the assay on SW-620 it was > 100 µM (inactive).
As for `c1ccc(C(OCCN2CC3CCC(C2)N3)c2ccccc2)cc1`, the GI50 in the assay on HOP-92 was 18.3 µM (inactive); in the assay with Hs-578T, 75.9 µM (inactive); with RXF 393, 43.8 µM (inactive); with BT-549, 22 µM (inactive); with HL-60 it was 74.1 µM (inactive); with SNB-19, > 100 µM (inactive). Moreover, the GI50 with SF-539 is 82.4 µM (inactive); in the assay on MDA-N, 26.4 µM (inactive); with SNB-75, 50.1 µM (inactive); in the assay on TK-10 it was > 100 µM (inactive); with UACC-257, 22.7 µM (inactive); in the assay on NCI-H226, 45 µM (inactive). Moreover, the GI50 in the assay on HCT-15 is 47.6 µM; with OVCAR-4, > 100 µM (inactive); in the assay with NCI/ADR-RES, > 100 µM (inactive); in the assay on NCI-H460 it was 50.4 µM (inactive); in the assay with MCF7 it was 48.6 µM (inactive); in the assay with OVCAR-5 it was > 100 µM (inactive). For the same compound, the GI50 is 35.2 µM (inactive) in the assay with NCI-H522 and 81.3 µM (inactive) in the assay on SW-620.
Take `COC(=O)NC1C(C)OC(OC2C/C=C(/C)C3C=CC4C(OC5CC(OC6CC(O)C(OC7CC(O)C(OC)C(C)O7)C(C)O6)C(O)C(C)O5)C(C)CC(C)C4C3(C)C(=O)C3=C(O)C4(CC(C)C(CO)=CC4/C=C\2C)OC3=O)CC1(C)[N+](=O)[O-]` (stereo unspecified): the GI50 was 5.45 µM (inactive) in the assay with HOP-92; 10.9 µM (inactive) in the assay on Hs-578T; 12.3 µM (inactive) in the assay with RXF 393; 13.5 µM (inactive) in the assay on BT-549; 4.51 µM (inactive) with HL-60; 19.1 µM (inactive) in the assay on SNB-19. Also, the GI50 is 16.9 µM (inactive) in the assay on SF-539; 9.55 µM (inactive) with MDA-N; 19.7 µM (inactive) with SNB-75; 10 µM (inactive) in the assay on TK-10; 13.9 µM (inactive) in the assay on UACC-257; 11.7 µM (inactive) in the assay with NCI-H226. The GI50 is 18 µM in the assay on HCT-15; 3.48 µM (inactive) with OVCAR-4; 69.5 µM (inactive) in the assay with NCI/ADR-RES; 12.3 µM (inactive) in the assay with NCI-H460; 2.71 µM (inactive) in the assay with MCF7; 17.9 µM (inactive) in the assay on OVCAR-5. Moreover, the GI50 in the assay on NCI-H522 is 5.69 µM (inactive); in the assay with SW-620, 9.86 µM (inactive).
For `O=C(c1ccc(Cl)c(Cl)c1)N(C(=S)OC12CC3CC(CC(C3)C1)C2)c1ccccc1`, the GI50 in the assay on HOP-92 was 31.8 µM (inactive); in the assay on Hs-578T, 41.3 µM (inactive); in the assay on RXF 393 it was > 100 µM (inactive); in the assay on BT-549, 36 µM (inactive); in the assay on HL-60, 15.8 µM (inactive); in the assay on SNB-19, 33.3 µM (inactive). Further, the GI50 is 36.6 µM (inactive) with SF-539; 32.7 µM (inactive) in the assay with MDA-N; 93.1 µM (inactive) with SNB-75; 66.8 µM (inactive) with TK-10; 41.2 µM (inactive) with UACC-257; 31.2 µM (inactive) in the assay on NCI-H226. Also, the GI50 in the assay on HCT-15 was 33.3 µM; in the assay on OVCAR-4, 38.2 µM (inactive); with NCI/ADR-RES, 30.1 µM (inactive); in the assay on NCI-H460, 37.8 µM (inactive); with MCF7, 28 µM (inactive); in the assay on OVCAR-5 it was 18.7 µM (inactive). For the same compound, the GI50 is 13.2 µM (inactive) with NCI-H522 and 35.2 µM (inactive) in the assay with SW-620.
As for `CC(C)=CCNc1ncnc2[nH]cnc12`, the GI50 with HOP-92, in the assay with Hs-578T, with RXF 393, in the assay on BT-549, in the assay with HL-60 and in the assay on SNB-19 was > 100 µM (inactive) each time. The GI50 in the assay with SF-539 was > 100 µM (inactive); in the assay with MDA-N, > 100 µM (inactive); with SNB-75, > 100 µM (inactive); in the assay with TK-10 it was > 100 µM (inactive); with UACC-257, 37.1 µM (inactive); in the assay on NCI-H226 it was 90.2 µM (inactive). Moreover, the GI50 is > 100 µM with HCT-15; > 100 µM (inactive) in the assay on OVCAR-4; > 100 µM (inactive) in the assay on NCI/ADR-RES; > 100 µM (inactive) with NCI-H460; > 100 µM (inactive) in the assay with MCF7; > 100 µM (inactive) in the assay with OVCAR-5. In addition, the GI50 in the assay with NCI-H522 and in the assay on SW-620 was > 100 µM (inactive) throughout.
As to `CCOc1ccc(/N=N/C2C(=O)N(C(=O)CC(=O)Nc3ccccc3OC)N=C2C)cc1` (stereo unspecified), the GI50 in the assay on HOP-92 was > 32.4 µM (inactive); with Hs-578T it was 2.85 µM (inactive); with RXF 393, 12.5 µM (inactive); in the assay with BT-549, 13.2 µM (inactive); with HL-60, 4.17 µM (inactive); in the assay with SF-539, 7.83 µM (inactive). The GI50 with MDA-N is 2.52 µM (inactive); in the assay on SNB-75, 0.916 µM (active); with TK-10, > 33.1 µM (inactive); in the assay with UACC-257, > 74.3 µM (inactive); in the assay on NCI-H226 it was > 52.1 µM (inactive); in the assay with HCT-15 it was 14.5 µM. Further, the GI50 in the assay on OVCAR-4 is > 19.7 µM (inactive); in the assay on NCI/ADR-RES it was 30 µM (inactive); with NCI-H460, 13.8 µM (inactive); in the assay with MCF7, 6.61 µM (inactive); with OVCAR-5 it was > 100 µM (inactive); with NCI-H522, 11 µM (inactive). In the assay on SW-620, the GI50 is 8 µM (inactive).
Turning to `CC1=CCC([C@@](C)(O)CCCC(C)(C)N=C=S)CC1` (stereo partly specified), the GI50 in the assay with HOP-92 was 18.5 µM (inactive); with Hs-578T it was 26.5 µM (inactive); in the assay on RXF 393, 13.7 µM (inactive); in the assay with BT-549, 17.8 µM (inactive); with HL-60 it was 21.8 µM (inactive); with SNB-19, 17.3 µM (inactive). In addition, the GI50 was 19.2 µM (inactive) in the assay on SF-539; 18.4 µM (inactive) in the assay on MDA-N; 17.8 µM (inactive) with SNB-75; 22 µM (inactive) with TK-10; 19.4 µM (inactive) in the assay on UACC-257; 17.2 µM (inactive) in the assay with NCI-H226. For the same compound, the GI50 in the assay with HCT-15 was 18.5 µM; in the assay with OVCAR-4 it was 16.5 µM (inactive); in the assay with NCI/ADR-RES, 19.6 µM (inactive); in the assay on NCI-H460, 16.5 µM (inactive); in the assay with MCF7, 18.7 µM (inactive); with OVCAR-5 it was 19.4 µM (inactive). The GI50 in the assay on NCI-H522 is 17.3 µM (inactive); in the assay with SW-620, 18.3 µM (inactive).
On to `NC(=O)SCCC(N)C(=O)O` (stereo unspecified), for which the GI50 is > 100 µM (inactive) in the assay on HOP-92; > 100 µM (inactive) with Hs-578T; > 100 µM (inactive) in the assay on RXF 393; > 100 µM (inactive) with BT-549; > 81.3 µM (inactive) in the assay with HL-60; > 100 µM (inactive) in the assay with SNB-19. Further, the GI50 in the assay on SF-539, with MDA-N, with SNB-75, in the assay with TK-10, in the assay with UACC-257 and in the assay with NCI-H226 was > 100 µM (inactive) each time. The GI50 in the assay with HCT-15 is > 100 µM; in the assay with OVCAR-4, > 100 µM (inactive); in the assay on NCI/ADR-RES it was > 100 µM (inactive); in the assay with NCI-H460, > 100 µM (inactive); with MCF7 it was > 100 µM (inactive); with OVCAR-5 it was > 100 µM (inactive). The GI50 in the assay with NCI-H522 and in the assay with SW-620 was > 100 µM (inactive) in each case.
On to `O=C(Nc1ccccc1)N1CCNC1=S`, for which the GI50 in the assay on HOP-92 was > 100 µM (inactive); with Hs-578T it was 48 µM (inactive); in the assay with RXF 393, 26.5 µM (inactive); in the assay on BT-549 it was 65.5 µM (inactive); in the assay with HL-60, > 100 µM (inactive); in the assay with SF-539, > 100 µM (inactive). Also, the GI50 in the assay on MDA-N was > 100 µM (inactive); with SNB-75, 28.4 µM (inactive); in the assay on NCI-H226, 87.5 µM (inactive); in the assay on HCT-15, > 100 µM; with OVCAR-4 it was 71.6 µM (inactive); in the assay with NCI/ADR-RES it was > 100 µM (inactive). Also, the GI50 with NCI-H460 was 57.9 µM (inactive); in the assay on MCF7, > 100 µM (inactive); in the assay with OVCAR-5, > 100 µM (inactive); in the assay on NCI-H522 it was > 100 µM (inactive); in the assay on SW-620, > 100 µM (inactive).
As for `O=C1C(Br)=Cc2c(Cl)sc(Cl)c21`, the GI50 in the assay with HOP-92 is 2.84 µM (inactive); in the assay with Hs-578T, 21.8 µM (inactive); in the assay on RXF 393 it was 2.46 µM (inactive); in the assay with BT-549 it was 22.2 µM (inactive); with HL-60, 1.87 µM (inactive); in the assay with SNB-19, 18.9 µM (inactive). The GI50 with SF-539 was 4.24 µM (inactive); in the assay on MDA-N it was 2.44 µM (inactive); with SNB-75 it was 13.3 µM (inactive); in the assay on TK-10 it was 2.17 µM (inactive); with UACC-257, 5.45 µM (inactive); in the assay on NCI-H226, > 100 µM (inactive). The GI50 in the assay on HCT-15 is 3.69 µM; in the assay with OVCAR-4, 2.74 µM (inactive); in the assay on NCI/ADR-RES, 8.65 µM (inactive); in the assay with NCI-H460 it was 18.3 µM (inactive); with MCF7 it was 2.44 µM (inactive); in the assay with OVCAR-5 it was 13.3 µM (inactive). Also, the GI50 in the assay on NCI-H522 is 5.16 µM (inactive); in the assay with SW-620, 2.19 µM (inactive).
